From ChEMBL document CHEMBL5365451, “Discovery of CVN417, a Novel Brain-Penetrant α6-Containing Nicotinic Receptor Antagonist for the Modulation of Motor Dysfunction” (J Med Chem, 2023)

Tests used:
[1] = target: Neuronal acetylcholine receptor; alpha3/beta4 (Homo sapiens, UniProt P30926+P32297); assay: Antagonist activity at human alpha3/beta4 nAChR expressed in HEK293 cells assessed as nicotine-induced intracellular calcium release incubated for 15 mins by FLIPR analysis; assay type: cell-based
Sequence of Neuronal acetylcholine receptor; alpha3/beta4 (P30926 whole entry): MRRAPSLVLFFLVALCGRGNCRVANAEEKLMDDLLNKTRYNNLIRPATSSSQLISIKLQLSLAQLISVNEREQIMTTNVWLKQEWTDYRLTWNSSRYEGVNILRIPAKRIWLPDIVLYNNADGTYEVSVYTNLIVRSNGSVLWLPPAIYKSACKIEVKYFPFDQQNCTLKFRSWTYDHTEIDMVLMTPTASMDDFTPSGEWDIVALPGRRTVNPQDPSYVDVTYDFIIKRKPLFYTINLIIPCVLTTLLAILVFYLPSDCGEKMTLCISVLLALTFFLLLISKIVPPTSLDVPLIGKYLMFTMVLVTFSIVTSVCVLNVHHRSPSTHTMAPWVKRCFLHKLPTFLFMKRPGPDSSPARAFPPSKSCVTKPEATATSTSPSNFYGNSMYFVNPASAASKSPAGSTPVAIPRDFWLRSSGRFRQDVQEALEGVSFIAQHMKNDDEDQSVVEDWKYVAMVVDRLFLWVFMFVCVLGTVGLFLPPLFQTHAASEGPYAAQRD
Sequence of Neuronal acetylcholine receptor; alpha3/beta4 (P32297 whole entry): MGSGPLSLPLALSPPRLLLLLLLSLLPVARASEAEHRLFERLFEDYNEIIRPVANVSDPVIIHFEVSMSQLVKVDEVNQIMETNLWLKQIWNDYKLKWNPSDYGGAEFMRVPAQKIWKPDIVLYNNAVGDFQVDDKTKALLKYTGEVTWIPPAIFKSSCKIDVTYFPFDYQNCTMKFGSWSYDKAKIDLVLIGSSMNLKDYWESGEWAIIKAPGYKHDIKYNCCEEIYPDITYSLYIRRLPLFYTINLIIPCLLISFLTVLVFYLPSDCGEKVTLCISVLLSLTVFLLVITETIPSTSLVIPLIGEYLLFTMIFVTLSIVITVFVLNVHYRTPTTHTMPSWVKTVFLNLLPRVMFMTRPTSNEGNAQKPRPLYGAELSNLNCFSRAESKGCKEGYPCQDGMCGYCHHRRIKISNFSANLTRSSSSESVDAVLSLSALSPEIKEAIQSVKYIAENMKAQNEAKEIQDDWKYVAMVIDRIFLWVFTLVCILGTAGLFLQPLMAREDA

[2] = target: Neuronal acetylcholine receptor; alpha4/beta2 (Homo sapiens, UniProt P17787+P43681); assay: Antagonist activity at human alpha4/beta2 nAChR expressed in HEK293 cells assessed as nicotine-induced intracellular calcium release incubated for 15 mins by FLIPR analysis; assay type: cell-based
Sequence of Neuronal acetylcholine receptor; alpha4/beta2 (P17787 whole entry): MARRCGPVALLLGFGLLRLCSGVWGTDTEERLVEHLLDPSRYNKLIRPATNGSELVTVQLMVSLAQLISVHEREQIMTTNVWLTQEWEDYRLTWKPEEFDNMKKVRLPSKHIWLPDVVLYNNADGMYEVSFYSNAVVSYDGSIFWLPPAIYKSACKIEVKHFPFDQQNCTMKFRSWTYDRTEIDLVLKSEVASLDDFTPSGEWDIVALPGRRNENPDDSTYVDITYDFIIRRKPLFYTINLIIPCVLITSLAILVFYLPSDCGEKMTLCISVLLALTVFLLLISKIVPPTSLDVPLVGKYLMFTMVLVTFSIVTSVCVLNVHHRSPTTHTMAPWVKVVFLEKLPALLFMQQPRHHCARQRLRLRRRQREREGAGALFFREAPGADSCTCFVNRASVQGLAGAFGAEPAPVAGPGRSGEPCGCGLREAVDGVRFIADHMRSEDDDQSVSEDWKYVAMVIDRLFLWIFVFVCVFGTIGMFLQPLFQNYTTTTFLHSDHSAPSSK
Sequence of Neuronal acetylcholine receptor; alpha4/beta2 (P43681 whole entry): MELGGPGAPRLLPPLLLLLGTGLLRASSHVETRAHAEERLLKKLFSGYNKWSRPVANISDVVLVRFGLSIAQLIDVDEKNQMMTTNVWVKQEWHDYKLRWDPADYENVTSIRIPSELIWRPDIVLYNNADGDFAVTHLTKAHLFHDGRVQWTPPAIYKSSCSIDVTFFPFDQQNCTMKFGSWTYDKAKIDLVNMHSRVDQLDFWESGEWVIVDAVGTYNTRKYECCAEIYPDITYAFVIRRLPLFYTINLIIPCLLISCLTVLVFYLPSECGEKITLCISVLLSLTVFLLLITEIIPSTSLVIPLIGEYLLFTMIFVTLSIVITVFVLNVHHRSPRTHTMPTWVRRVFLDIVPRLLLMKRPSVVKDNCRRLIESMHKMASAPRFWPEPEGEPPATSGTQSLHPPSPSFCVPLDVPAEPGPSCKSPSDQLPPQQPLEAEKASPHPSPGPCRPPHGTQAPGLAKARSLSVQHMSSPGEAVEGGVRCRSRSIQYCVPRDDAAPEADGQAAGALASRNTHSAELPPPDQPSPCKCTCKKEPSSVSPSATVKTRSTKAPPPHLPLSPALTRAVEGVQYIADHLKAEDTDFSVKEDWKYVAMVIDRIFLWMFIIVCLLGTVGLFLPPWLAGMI

[3] = Antagonist activity at human alpha6-alpha3/beta2/beta3 V273S mutant nAChR expressed in HEK293 cells assessed as nicotine-induced intracellular calcium release incubated for 15 mins by FLIPR analysis; assay type: cell-based; details: HEK293, 0.25 h
[4] = tested on: Brain; assay: Drug concentration in po dosed Sprague-Dawley rat brain measured after 2 hrs by LC-MS/MS analysis; assay type: functional, organism-based; details: dose 3-25 mg/kg
[5] = tested on: Rattus norvegicus; assay: Protection against tacrine-induced po dosed Sprague-Dawley rat tremulous jaw model assessed as decrease in tremor duration pretreated with compound for 90 mins followed by tacrine addition and measured after 5 mins; assay type: functional, organism-based; details: dose 3-25 mg/kg, time 95.0 min
[6] = Volume of distribution at steady state in Sprague-Dawley rat at 0.5 mg/kg, iv by LC-MS/MS analysis; assay type: ADME, organism-based; details: in vivo, read-out: Vdss
[7] = Metabolic stability in human liver microsome assessed as clearance preincubated for 60 mins followed by NADPH addition and measured after 60 mins by LC-MS/MS analysis; assay type: ADME; details: liver microsomes, time 120 min, read-out: CLH
[8] = Intrinsic clearance in Sprague-Dawley rat at 0.5 mg/kg, iv by LC-MS/MS analysis; assay type: ADME, organism-based; details: in vivo
[9] = Metabolic stability in rat liver microsome assessed as clearance preincubated for 60 mins followed by NADPH addition and measured after 60 mins by LC-MS/MS analysis; assay type: ADME; details: liver microsomes, time 120 min, read-out: CLH
[10] = Drug exposure in Sprague-Dawley rat brain at 3 mg/kg, po measured for 2 hrs by LC-MS/MS analysis; assay type: ADME, organism-based; details: read-out: Drug uptake
[11] = Oral bioavailability in Sprague-Dawley rat 3 mg/kg by LC-MS/MS analysis; assay type: ADME, organism-based; details: in vivo
[12] = Metabolic stability in rat liver microsome assessed as clearance at 10 uM incubated upto 2 hrs by LC-MS/MS analysis; assay type: ADME; details: liver microsomes, read-out: CLH
[13] = Metabolic stability in human liver microsome assessed as clearance at 10 uM incubated upto 2 hrs by LC-MS/MS analysis; assay type: ADME; details: liver microsomes, read-out: CLH
[14] = tested on: Rattus norvegicus; assay: Protection against tacrine-induced Sprague-Dawley rat tremulous jaw model assessed as decrease in tremor jaw movement at 25 mg/kg, po pretreated with compound for 90 mins followed by tacrine addition and measured after 5 mins; assay type: functional; set-up: scale not given: the % may be the effect or the level left; details: time 95 min, 1.583 h

SMILES: COc1ccc(-c2cc(C(=O)N[C@@H]3CCCN(C)C3)nn2C)cc1
- IC50 [1]: > 10 µM
- IC50 [2]: 3.5 µM
- IC50 [3]: 0.23 µM

SMILES: COc1ccc(-c2cc(C(=O)N[C@@H]3CCCN(C)C3)nn2C)c(Cl)c1
- IC50 [1]: 2.09 µM
- IC50 [2]: 0.563 µM
- Drug uptake [4]: Dose-Dependent Effect
- IC50 [3]: 0.077 µM
- Activity [5]: Dose-Dependent Effect

SMILES: CN1CCC[C@@H](NC(=O)c2cc(-c3ccc(C(F)(F)F)cc3)n(C)n2)C1
- Vd [6]: 13.4 L/kg
- IC50 [1]: 0.637 µM
- microsomal CLint [7]: 21.4 µL/min/mg
- IC50 [2]: 2.82 µM
- CL [8]: 70 mL/min/kg
- IC50 [3]: 0.08 µM
- microsomal CLint [9]: 3.5 µL/min/mg
- concentration at 2 h [10]: 1910 nM
- bioavailability [11]: > 100%

SMILES: COc1ccc(-c2cc(C(=O)N[C@@H]3CN(C)CCC3(F)F)nn2C)c(Cl)c1
- IC50 [3]: 0.094 µM
- microsomal CLint at 10 µM [12]: < 6.4 µL/min/mg
- microsomal CLint at 10 µM [13]: 61.3 µL/min/mg

SMILES: COc1ccc(-c2cc(C(=O)N[C@H]3CN(C)CCC3(F)F)nn2C)c(Cl)c1
- IC50 [3]: 0.115 µM
- microsomal CLint at 10 µM [12]: 204 µL/min/mg
- microsomal CLint at 10 µM [13]: 75.5 µL/min/mg

SMILES: CN1CCC[C@H](NC(=O)c2cc(-c3ccc(C(F)(F)F)cc3Cl)n(C)n2)C1
- IC50 [3]: 0.083 µM

SMILES: Cn1nc(C(=O)NCC2CCCOC2)cc1-c1ccc(C(F)(F)F)cc1 (racemic)
- IC50 [3]: 3.29 µM

SMILES: Cc1ccc(C)c(Cn2nc(C)cc2C(=O)N[C@@H]2C[C@H]3CCC[C@@H](C2)N3C)c1
- IC50 [3]: 0.703 µM

SMILES: CN1CCC(NC(=O)c2cc(-c3ccc(C(F)(F)F)cc3)n(C)n2)C1 (racemic)
- Vd [6]: 18.5 L/kg
- IC50 [1]: 2.45 µM
- microsomal CLint [7]: 28.9 µL/min/mg
- IC50 [2]: 7.72 µM
- CL [8]: 47 mL/min/kg
- IC50 [3]: 0.132 µM
- microsomal CLint [9]: 31.2 µL/min/mg
- concentration at 2 h [10]: 948 nM
- bioavailability [11]: 18.1%

SMILES: CCCN(CCC)CCc1cccc2c1CC(=O)N2 [ROPINIROLE]
- Activity [14]: 17.5%
